Patent publication US4737361A, “Alpha adrenergic amine of substantial alpha2 adrenergic amine activity as an antiperspirant” (Bristol-Myers Company, priority 1986, dated 1988)
Where a name gives a salt, the structure may show the parent alone.

Assays:
sweat glands = assay: rat foot pad sweat inhibition (starch-iodine count of secreting sweat glands, test foot vs control foot); format: in vivo, Sprague Dawley rats; conditions: for Approx. % Inhibition: topical, rat hind foot pads, 40 minutes post treatment
Experimental: A series of test solutions were prepared by dissolving various quantities of xylometazoline HCl, oxymetazoline HCl and naphazoline HCl in freshly prepared distilled water. In the case of xylometazoline HCl 0.003%, 0.03%, 0.15% and 0.3% solutions were prepared. In the cases for oxymetazoline HCl and naphazoline HCl 0.15% solutions were made. The control material is distilled water.
A. Prior to testing, rats are routinely acclimated to the laboratory environment for seven days and gross observations are made to ensure good health of animals to be tested.
B. Sprague Dawley rats, male and/or female (175-250 gm) are selected for test and identified by cage label and ear tag number.
C. A minimum of 6 animals is used in testing each solution.
A. Test room should be maintained at a temperature of 78°±2° F.
1. Test animals are injected intramuscularly with Innovar Vet™ (0.01 ml/100 gm body wt.) by use of a 0.25 ml tuberculin syringe with a 26 or 27 gauge needle. Animals are then returned to their cages.
3. Both hind feet are then swabbed with 70% ethyl alcohol (ETOH) to remove any debris.
4. The four interdigital palmar foot pads on one hind foot are then treated with test material while the opposite hind foot is treated with the control material.
5. After treatment of all animals, an iodine solution (2% in 95% ETOH wt./vol.) is applied to both hind feet.
6. 30 minutes post treatment the hind feet are then painted with a suspension of starch and castor oil (50/50, wt./vol.).
7. 40 minutes post treatment Polaroid photos (3X, using Polaroid Type Film 669) are taken of both hind feet in the same frame.
1. The number of activated sweat glands in each of the four palmar foot pads is quantitated by manually counting the black dots observed in the photo of the control and test treated feet.
2. The ratio of the total number of secreting sweat glands on the control foot vs the total number of secreting sweat glands on the test foot is used to estimate the percent inhibition of sweat in the rat foot pad.
3. The following formula is used to calculate activity. [formula]

[1] = test system: single equine sweat glands; conditions: cited from earlier work

SMILES	Approx. % Inhibition (sweat glands; Concentration Tested 0.15%)	sweating responses [1]	further results
c1ccc2c(CC3=NCCN3)cccc2c1 [Naphazoline HCl, naphazoline HCl]	~95%	–	–
Cc1cc(C(C)(C)C)c(O)c(C)c1CC1=NCCN1 [Oxymetazoline HCl, oxymetazoline HCl]	~92%	–	–
Cc1cc(C(C)(C)C)cc(C)c1CC1=NCCN1 [Xylometazoline HCl, xylometazoline HCl]	~80%	–	dose response of percent inhibition (sweat glands; 0.003-0.3% solutions): the percent inhibition increased with the increase in concentration of the test drug; Approx. % Inhibition (sweat glands; Concentration Tested 0.003%): ~30%; Approx. % Inhibition (sweat glands; Concentration Tested 0.03%): ~50%; Approx. % Inhibition (sweat glands; Concentration Tested 0.3%): ~88%
COc1ccc(OC)c(C(O)C(C)N)c1 (stereo not drawn) [methoxamine]	–	moderate sweating responses	–
CNC[C@H](O)c1cccc(O)c1 [phenylephrine]	–	moderate sweating responses	–
